We go through 13 compounds from patent publication US11673889B2, “Substituted imidazo[4,5-c][1,8]naphthyridines as phosphodiesterase inhibitors” (Nanjing Zhengxiang Pharmaceuticals Co., Ltd., priority 2019, dated 2023).

The target in assay [1] is T1, human soluble ENPP1 (Homo sapiens, UniProt P22413).
T1 construct: 20 ng of human soluble ENPP1
T1 sequence (P22413 103-925 limits assumed): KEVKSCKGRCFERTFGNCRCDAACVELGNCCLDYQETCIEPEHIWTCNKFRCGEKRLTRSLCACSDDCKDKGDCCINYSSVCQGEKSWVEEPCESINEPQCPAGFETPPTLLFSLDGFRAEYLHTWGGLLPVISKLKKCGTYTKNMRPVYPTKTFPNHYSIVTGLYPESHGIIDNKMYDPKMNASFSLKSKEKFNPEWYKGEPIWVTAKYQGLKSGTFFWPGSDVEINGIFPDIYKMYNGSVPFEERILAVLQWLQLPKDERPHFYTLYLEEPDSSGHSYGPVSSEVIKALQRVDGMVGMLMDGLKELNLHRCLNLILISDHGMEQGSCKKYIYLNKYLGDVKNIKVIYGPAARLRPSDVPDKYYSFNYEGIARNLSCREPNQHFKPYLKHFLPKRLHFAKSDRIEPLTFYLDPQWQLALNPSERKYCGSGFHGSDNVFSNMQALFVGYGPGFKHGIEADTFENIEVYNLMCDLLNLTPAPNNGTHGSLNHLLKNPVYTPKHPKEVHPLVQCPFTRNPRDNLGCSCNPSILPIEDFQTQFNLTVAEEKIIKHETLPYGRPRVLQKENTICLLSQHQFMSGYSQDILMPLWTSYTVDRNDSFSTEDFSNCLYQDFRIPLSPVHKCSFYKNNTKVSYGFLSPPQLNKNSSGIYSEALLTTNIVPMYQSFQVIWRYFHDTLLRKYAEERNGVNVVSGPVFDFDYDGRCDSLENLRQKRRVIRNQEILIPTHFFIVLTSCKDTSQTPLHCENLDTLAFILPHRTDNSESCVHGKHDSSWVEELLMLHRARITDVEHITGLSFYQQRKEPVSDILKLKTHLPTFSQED
Description: ENPP1 activity assay using p-Nitrophenyl-5′-TMP as a substrate. The format is biochemical. How it is done:
ENPP1 is a transmembrane glycoprotein that hydrolyzes nucleotides and nucleotide derivatives with the formation of nucleotide-5′-monophosphates. ENPP1 hydrolyzes artificial phosphoric acid ester thymidine 5′monophosphate p-nitrophenyl ester (TMP-pNP) to nucleotide-5′-monophosphate and p-nitrophenol, which is a chromogenic product.
Load into a well with 20 ng of human soluble ENPP1 in 50 μL and incubate at room temperature with 25 μL inhibitor solution (4× Final Concentration) for 30 mins. Then, add 25 μL 2 mM TMP solution (2× Final Concentration) into the well, Incubate at RT for 1 hour.
(§1) The percent inhibition at each compound is calculated as follows: % inhibition=(ODMAX−ODCOMPOUND)/(ODMAX−ODMIN)*100. (MAX: absence of ENPP1 inhibitors control, MIN: blank control.)
The IC50 values for percent inhibition versus compound concentration were determined by fitting the inhibition curves using a four-parameter variable slope model in GraphPad Prism® 8.

The target in assay [2] is T1, human soluble ENPP1. Description: ENPP1 activity assay using p-Nitrophenyl-5′-AMP as a substrate. It counts as biochemical. How it is done: AMP-pNP can be used as substrate of ENPP-1. Its hydrolysis products were nucleotide-5′-monophosphate and p-nitrophcnol, which is also a chromogenic product. The amount of p-nitrophenol product formed is measured using its absorbance at 405 nm, which is directly proportional to enzyme activity.
Load into a well with […] of human soluble ENPP1 in 50 μL and incubate at room temperature with 25 μL inhibitor solution (4× Final Concentration) for 30 mins prior adding 25 μL 3 mM AMP solution (2× Final Concentration) into the well, Incubate at RT for 1 hour. The amounts of released p-nitrophenolate were measured by reading OD value at 405 nm.
as §1
(§2) The IC50 values for percent inhibition versus compound concentration are determined by fitting the inhibition curves using a four-parameter variable slope model in GraphPad Prism® 8.

In a further assay the target is T2, ENPP-1, MDA-MB-231 cells (Homo sapiens, UniProt P22413).
T2 sequence (P22413 1-925): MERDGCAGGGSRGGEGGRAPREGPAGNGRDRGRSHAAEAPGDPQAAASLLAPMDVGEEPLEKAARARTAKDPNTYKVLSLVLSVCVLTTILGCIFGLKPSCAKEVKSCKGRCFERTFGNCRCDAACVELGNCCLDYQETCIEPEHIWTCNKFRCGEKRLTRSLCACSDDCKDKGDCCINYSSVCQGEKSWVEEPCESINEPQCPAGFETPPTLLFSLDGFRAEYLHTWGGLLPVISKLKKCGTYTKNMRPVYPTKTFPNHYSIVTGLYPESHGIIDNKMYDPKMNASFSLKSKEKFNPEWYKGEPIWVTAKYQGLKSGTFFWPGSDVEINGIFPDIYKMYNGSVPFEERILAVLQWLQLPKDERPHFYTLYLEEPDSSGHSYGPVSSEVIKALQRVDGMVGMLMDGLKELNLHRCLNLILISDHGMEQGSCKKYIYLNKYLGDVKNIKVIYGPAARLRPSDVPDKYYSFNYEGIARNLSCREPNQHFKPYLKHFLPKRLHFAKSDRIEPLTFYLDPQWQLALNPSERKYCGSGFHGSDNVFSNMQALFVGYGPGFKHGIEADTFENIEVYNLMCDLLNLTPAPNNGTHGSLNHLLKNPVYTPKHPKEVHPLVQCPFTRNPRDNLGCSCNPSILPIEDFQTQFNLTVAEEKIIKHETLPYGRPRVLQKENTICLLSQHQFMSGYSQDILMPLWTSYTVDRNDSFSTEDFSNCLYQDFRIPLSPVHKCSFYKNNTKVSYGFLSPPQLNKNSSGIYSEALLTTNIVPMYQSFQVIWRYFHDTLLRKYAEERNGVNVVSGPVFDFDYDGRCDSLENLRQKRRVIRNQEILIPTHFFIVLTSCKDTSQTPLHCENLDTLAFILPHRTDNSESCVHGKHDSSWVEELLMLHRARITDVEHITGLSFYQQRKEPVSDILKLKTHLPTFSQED
Description: cell-based. The settings on record: for inhibition at 20 µM: MDA-MB-231, read-out: % Inhibition (at 20 μM). How it is done: ENPP-1 were mainly expressed on the surface of cell membrane where it hydrolytes 2′3′-cGAMP to generate 5′-GMP and 5′-AMP. ENPP-1 also has the ability to hydrolyzes artificial phosphoric acid ester TMP-pNP to nucleotide-5′-monophosphate and p-nitrophcnol there, which is a chromogenic product.
8 point of different concentrations of each inhibitor were prepared with the final assay concentrations starting at 20 μM. 3× series dilution by DMEM medium without FBS was applied. Prior to adding inhibitors, 75000 cells per well were incubated at 37° C., 5% CO2 in DMEM for 24 hours. After removing the supernatant medium, 50 μL inhibitor solution was added into each well with cultured cells and incubate at 37° C., 5% CO2 for 60 minutes.
as §2

The mark [3] stands for this setting: substrate TMP-pNP, 20 ng human soluble ENPP1, Tris buffer pH 9.5, read-out: TMP-pNP (IC50).

Broadly, the IC50 is the midpoint of a concentration-inhibition curve. By inhibition is commonly meant the percentage by which the read-out fell short of the control. Regarding `COc1ccc2c(ncc3nc(C4CNC4)n(Cc4ccc(S(N)(=O)=O)c(F)c4)c32)n1` [Compound 85, 4-((2-(azetidin-3-yl)-7-methoxy-1H-imidazo[4,5-c][1,8]naphthyridin-1-yl)methyl)-2-fluorobenzenesulfonamide], the IC50 turned out to be 2 nM against human soluble ENPP1 [1]; 5.2 nM at human soluble ENPP1 [2]; 900 nM at ENPP-1, MDA-MB-231 cells. Further, the inhibition at 20 µM on ENPP-1, MDA-MB-231 cells came out at 79%.

`COc1ccc2c(ncc3nc(C4CN(S(C)(=O)=O)C4)n(Cc4ccc(S(N)(=O)=O)c(F)c4)c32)n1` [Compound 86, 2-fluoro-4-((7-methoxy-2-(1-(methylsulfonyl)azetidin-3-yl)-1H-imidazo[4,5-c][1,8]naphthyridin-1-yl)methyl)benzenesulfonamide]: the IC50 against human soluble ENPP1 [1] was 0.81 nM; at human soluble ENPP1 [2], 3.2 nM; against ENPP-1, MDA-MB-231 cells, 620 nM. For the same compound, the inhibition at 20 µM on ENPP-1, MDA-MB-231 cells was 80%.

For `COc1ccc2c(n1)nc(C)c1ncn(Cc3ccc(S(N)(=O)=O)cn3)c12` [Compound 87, 6-((7-methoxy-4-methyl-1H-imidazo[4,5-c][1,8]naphthyridin-1-yl)methyl)pyridine-3-sulfonamide], the IC50 against human soluble ENPP1 [1] is 1.3 nM; on human soluble ENPP1 [2] it was 4 nM; on ENPP-1, MDA-MB-231 cells, 360 nM. The inhibition at 20 µM on ENPP-1, MDA-MB-231 cells is 85%.

Consider `COc1ccc2c(n1)nc(C)c1ncn(Cc3ccc(S(N)(=O)=O)c(F)c3)c12` [Compound 88, 2-fluoro-4-((7-methoxy-4-methyl-1H-imidazo[4,5-c][1,8]naphthyridin-1-yl)methyl)benzenesulfonamide], for which the IC50 against human soluble ENPP1 [1] is 4 nM; on human soluble ENPP1 [2] it was 12 nM; against ENPP-1, MDA-MB-231 cells, 2200 nM. Moreover, the inhibition at 20 µM at ENPP-1, MDA-MB-231 cells was found to be 81%.

For `COc1ccc2c(n1)nc(C)c1nc(C)n(Cc3cc(F)c(S(N)(=O)=O)cc3F)c12` [Compound 90, 2,5-difluoro-4-((7-methoxy-2,4-dimethyl-1H-imidazo[4,5-c][1,8]naphthyridin-1-yl)methyl)benzenesulfonamide], the IC50 against human soluble ENPP1 [1] came to 2.4 nM; on human soluble ENPP1 [2], 7.7 nM; against ENPP-1, MDA-MB-231 cells, 980 nM. At ENPP-1, MDA-MB-231 cells, the inhibition at 20 µM was 74%.

Regarding `COc1ccc2c(n1)nc(C)c1nc(C)n(Cc3ncc(S(N)(=O)=O)cn3)c12` [Compound 91a, 2-((7-methoxy-2,4-dimethyl-1H-imidazo[4,5-c][1,8]naphthyridin-1-yl)methyl)pyrimidine-5-sulfonamide], the IC50 was 83 nM on human soluble ENPP1 [1] (setting [3]); 323 nM on human soluble ENPP1 [2]; over 6700 nM on ENPP-1, MDA-MB-231 cells. Further, the inhibition at 20 µM at ENPP-1, MDA-MB-231 cells was determined as 53%.

With `COc1ccc2c(n1)nc(C)c1nc(CN(C)C)n(Cc3cc(F)c(S(N)(=O)=O)cc3F)c12` [Compound 92, 4-((2-((dimethylamino)methyl)-7-methoxy-4-methyl-1H-imidazo[4,5-c][1,8]naphthyridin-1-yl)methyl)-2,5-difluorobenzenesulfonamide], the IC50 against human soluble ENPP1 [1] amounted to 9.3 nM; at human soluble ENPP1 [2] it was 29 nM; on ENPP-1, MDA-MB-231 cells, 4100 nM. For the same compound, the inhibition at 20 µM on ENPP-1, MDA-MB-231 cells was found to be 68%.

As for `COCCc1nc2c(C)nc3nc(OC)ccc3c2n1Cc1cc(F)c(S(N)(=O)=O)cc1F` [Compound 93, 2,5-difluoro-4-((7-methoxy-2-(2-methoxyethyl)-4-methyl-1H-imidazo[4,5-c][1,8]naphthyridin-1-yl)methyl)benzenesulfonamide], the IC50 on human soluble ENPP1 [1] came out at 3.7 nM; on human soluble ENPP1 [2], 13 nM; at ENPP-1, MDA-MB-231 cells it was 2200 nM. For the same compound, the inhibition at 20 µM on ENPP-1, MDA-MB-231 cells was determined as 74%.

On to `COc1ccc2c(n1)nc(C)c1nc(CO)n(Cc3cc(F)c(S(N)(=O)=O)cc3F)c12` [Compound 94, 2,5-difluoro-4-((2-(hydroxymethyl)-7-methoxy-4-methyl-1H-imidazo[4,5-c][1,8]naphthyridin-1-yl)methyl)benzenesulfonamide], for which the IC50 on human soluble ENPP1 [1] is 3.4 nM; against human soluble ENPP1 [2], 8.8 nM; against ENPP-1, MDA-MB-231 cells it was 2700 nM. Further, the inhibition at 20 µM at ENPP-1, MDA-MB-231 cells is 74%.

As to `COc1ccc2c(ncc3[nH]c(=O)n(Cc4ccc(S(N)(=O)=O)c(F)c4F)c32)n1` [Compound 95, 2,3-difluoro-4-((7-methoxy-2-oxo-2,3-dihydro-1H-imidazo[4,5-c][1,8]naphthyridin-1-yl)methyl)benzenesulfonamide], the IC50 on human soluble ENPP1 [1] (setting [3]) was 1.4 nM; at human soluble ENPP1 [2] it was 4.6 nM; at ENPP-1, MDA-MB-231 cells, 1400 nM. The inhibition at 20 µM at ENPP-1, MDA-MB-231 cells stood at 75%.

On to `COc1ccc2c(ncc3[nH]c(=O)n(Cc4ccc(S(N)(=O)=O)nc4)c32)n1` [Compound 96, 5-((7-methoxy-2-oxo-2,3-dihydro-1H-imidazo[4,5-c][1,8]naphthyridin-1-yl)methyl)pyridine-2-sulfonamide], for which the IC50 came out at 1.7 nM on human soluble ENPP1 [1] (setting [3]); 5.4 nM against human soluble ENPP1 [2]; 11000 nM on ENPP-1, MDA-MB-231 cells. The inhibition at 20 µM at ENPP-1, MDA-MB-231 cells was found to be 57%.

Regarding `COc1ccc2c(ncc3[nH]c(=O)n(CC4CC(OS(N)(=O)=O)C4)c32)n1` (stereo not shown) [Compound 97, 3-((7-methoxy-2-oxo-2,3-dihydro-1H-imidazo[4,5-c][1,8]naphthyridin-1-yl)methyl)cyclobutyl sulfamate], the IC50 is 0.56 nM at human soluble ENPP1 [1]; 1.1 nM against human soluble ENPP1 [2]; 810 nM against ENPP-1, MDA-MB-231 cells. In addition, the inhibition at 20 µM at ENPP-1, MDA-MB-231 cells stood at 78%.

Consider `COc1ccc2c(ncc3[nH]c(=O)n(Cc4ccc(S(N)(=O)=O)c(F)c4)c32)n1` [Compound 98, 2-fluoro-4-((7-methoxy-2-oxo-2,3-dihydro-1H-imidazo[4,5-c][1,8]naphthyridin-1-yl)methyl)benzenesulfonamide], for which the IC50 on human soluble ENPP1 [1] (setting [3]) is 0.6 nM; on human soluble ENPP1 [2] it was 3 nM; against ENPP-1, MDA-MB-231 cells it was 3800 nM. Besides, the inhibition at 20 µM at ENPP-1, MDA-MB-231 cells was found to be 62%.
